Test results published in ChEMBL document CHEMBL1139604 (Bioorg Med Chem Lett, 2005).

What was measured:
[1] = Inhibition of bovine farnesyl transferase; design: species or system Bos taurus
[2] = biological target: T1, Protein farnesyltransferase (Mus musculus, UniProt Q61239+Q8K2I1); test: Inhibition of Ras processing in H-ras transformed NIH3T3 cells; assay type: functional, cell-based
[3] = biological target: T2, Geranylgeranyl transferase type I (Bos taurus, UniProt P29702+Q5EAD5); test: Inhibition of bovine geranylgeranyl transferase type I; assay type: protein-complex assay
[4] = biological target: T3, Protein farnesyltransferase (Mus musculus) (UniProt Q61239+Q8K2I1); test: Percent inhibition of Ras processing in H-ras transformed NIH3T3 cells at 1000 nM; assay type: functional, cell-based
[5] = biological target: T3, Protein farnesyltransferase (Mus musculus); test: Percent inhibition of Ras processing in H-ras transformed NIH3T3 cells at 100 nM; assay type: functional, cell-based
[6] = biological target: T1, Protein farnesyltransferase; test: Inhibition of Ras processing in H-ras transformed NIH3T3 cells in presence of Lonafarnib; assay type: functional, cell-based
[7] = biological target: T2, Geranylgeranyl transferase type I; test: Inhibition of bovine geranylgeranyl transferase type I in presence of Lonafarnib; assay type: protein-complex assay
[8] = Inhibition of bovine farnesyl transferase in presence of Lonafarnib; design: species or system Bos taurus

Structure (SMILES)	IC50 [1] [nM]	IC50 [3] [nM]	inhibition [5] [%]	further results
CCOc1cccc(-n2c(=O)n(C)c3ccc(C(O)(c4ccc(Cl)cc4)c4cncn4C)cc32)c1 (stereo not drawn)	6.6	7500	–	EC50 [2]: 22 nM
Cn1cncc1C(O)(c1ccccc1)c1ccc2ccn(-c3cccc(Cl)c3)c2c1 (stereo not drawn)	36	–	–	inhibition [4]: 13%
Cn1cncc1C(O)(c1ccc(C#N)cc1)c1ccc2c(c1)n(-c1ccc3c(c1)OCO3)c(=O)n2C (stereo not drawn)	8	> 10000	0	–
Cn1cncc1C(O)(c1ccc(I)cc1)c1ccc2c(c1)n(Cc1cccc(Cl)c1)c(=O)n2C (stereo not drawn)	71	–	–	–
Cn1cncc1C(O)(c1ccc(C#N)cc1)c1ccc2c(c1)n(-c1cccc(Cl)c1)c(=O)n2C (stereo not drawn)	1.4	1800	–	EC50 [2]: 18.1 nM
Cn1cncc1C(O)(c1ccc(C#N)cc1)c1ccc2c(c1)n(Cc1cccc(Cl)c1)c(=O)n2C (stereo not drawn)	5.2	5600	51	–
Cn1cncc1C(O)(c1ccc(Cl)cc1)c1ccc2c(c1)n(-c1ccc3c(c1)OCO3)c(=O)n2C (stereo not drawn)	150	–	–	–
Cn1cncc1C(O)(c1ccc(Cl)cc1)c1ccc2c(c1)n(Cc1cccc(Cl)c1)c(=O)n2C (stereo not drawn)	150	–	–	–
COc1cccc(-n2c(=O)n(C)c3ccc(C(O)(c4ccc(C#N)cc4)c4cncn4C)cc32)c1 (stereo not drawn)	5.1	> 10000	–	–
Cn1cncc1C(O)(c1ccc(Cl)cc1)c1ccc2c(c1)n(-c1ccc3ccccc3c1)c(=O)n2C (stereo not drawn)	21	2900	0	–
Cn1cncc1C(O)(c1ccc(Cl)cc1)c1ccc2c(c1)n(C)c(=O)n2-c1cccc(Cl)c1 (stereo not drawn)	1100	–	–	–
Cn1cncc1C(O)(c1ccc(I)cc1)c1ccc2c(c1)n(-c1cccc(Cl)c1)c(=O)n2C (stereo not drawn)	24	1200	2	–
COc1cccc(-n2c(=O)n(C)c3ccc(C(O)(c4ccc(Cl)cc4)c4cncn4C)cc32)c1 (stereo not drawn)	6.7	> 10000	24	–
CCOc1cccc(-n2c(=O)n(C)c3ccc(C(O)(c4ccc(C#N)cc4)c4cncn4C)cc32)c1 (stereo not drawn)	0.5	> 10000	47	–
Cn1cncc1C(O)(c1ccccc1)c1ccc2ccn(-c3cccc4ccccc34)c2c1 (stereo not drawn)	200	–	–	–
Cn1cncc1[C@@](N)(c1ccc(Cl)cc1)c1ccc2c(c1)c(-c1cccc(Cl)c1)cc(=O)n2C [TIPIFARNIB]	–	–	–	EC50 [6]: 100 nM; IC50 [7]: > 10000 nM; IC50 [8]: 8.3 nM
Cn1cncc1C(O)(c1ccc(Cl)cc1)c1ccc2c(c1)n(-c1cccc(Cl)c1)c(=O)n2C (stereo not drawn)	16	–	26	–
